According to patent publication US12461089B2, “Olfactory receptor involved in the perception of musk fragrance and the use thereof” (ChemoSensoryX Biosciences SA, priority 2017, dated 2025):

Columns and labels:
Format in all cases: cell-based
OR5A2_variant 2 = biological target: T1, OR5A2_variant 2 (Homo sapiens, UniProt Q8NGI9, P172L); assay: Luciferase reporter concentration-response analysis on haplotype OR5A2_variant 2 (P172L); conditions: CRE-luciferase; empty vector pEFIBRHO as control
T1 construct: (P172L, OR5A2_variant 2); expressed in transfected cells; host or cells: HEK293T-RTP1A1/RTP2
T1 sequence (Q8NGI9 1-324 P172L): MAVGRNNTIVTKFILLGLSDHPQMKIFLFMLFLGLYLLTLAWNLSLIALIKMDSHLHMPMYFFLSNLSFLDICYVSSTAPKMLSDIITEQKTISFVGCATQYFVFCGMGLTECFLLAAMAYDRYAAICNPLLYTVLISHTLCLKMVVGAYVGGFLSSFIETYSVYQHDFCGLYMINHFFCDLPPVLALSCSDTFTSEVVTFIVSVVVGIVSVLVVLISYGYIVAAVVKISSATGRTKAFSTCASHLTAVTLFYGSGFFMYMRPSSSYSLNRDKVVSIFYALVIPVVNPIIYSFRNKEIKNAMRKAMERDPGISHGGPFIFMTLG
Method: (§1) HEK293T-RTP1A1/RTP2 cells were maintained in minimal essential medium (EMEM, Lonza) containing 10% fetal bovine serum (M10). These cells were generated by transfecting HEK293T with an expression vector containing the sequences of the chaperone proteins RTP1A1 and RTP2 and a resistance gene to puromycin, using Lipofectamine 2000.
(§2) Odorant molecules were diluted at a concentration of 1 mole/liter (M) into dimethyl sulfoxide (DMSO) to generate stock solutions.
(§3) For concentration-response analysis, serial dilutions of the tested molecules were prepared from stock solutions in EMEM plated into 96-well plates.
(§4) For the initial deorphanisation screening and dose-response analysis, a Luciferase-based gene reporter assay (Promega, Leiden, The Nederlands) was used. Briefly, cells were platted on Poly-D-lysine-coated 96-well and transfected with a plasmid containing the CRE-luciferase and a plasmid containing the olfactory receptor. Sixteen hours after transfection, the culture medium was replaced by serum-free EMEM containing the tested compounds at a determined concentration. After four hours of incubation at 37° C. degree, cells were lysed and processed for luminescence measurement. Luminescene emission was recorded. Results were expressed as luciferase activity (Relative […] Unit (RLU)) or as percentage of the response induced by 10 μM of the adenylate cyclase activator Forskolin. An empty plasmid is used as negative control.
OR genes are highly variable, with many alleles resulting in differences in smell perception from person to person. These differences can be attributed to genetic variations like, for example, nucleotide polymorphisms. […] Amino acids alignment of the 2 haplotypes are represented in FIG. 4.
To test if the substitution could impact the musk sensitivity, luciferase assays were performed as described previously after transfection of both OR5A2 variants. Cells were treated with semi-logarithmic serial dilutions of musk compounds from the four structurally different groups described earlier. In each experiment, an empty vector was used as negative control (pEFIBRHO).

OR2A5 = biological target: T2, OR2A5 (Homo sapiens, UniProt Q96R48, A202S/A255T/I126V); assay: Luciferase reporter concentration-response analysis on OR2A5; conditions: CRE-luciferase
T2 construct: expressed in transfected cells; host or cells: HEK293T-RTP1A1/RTP2
T2 sequence (Q96R48 1-311 I126V/A202S/A255T): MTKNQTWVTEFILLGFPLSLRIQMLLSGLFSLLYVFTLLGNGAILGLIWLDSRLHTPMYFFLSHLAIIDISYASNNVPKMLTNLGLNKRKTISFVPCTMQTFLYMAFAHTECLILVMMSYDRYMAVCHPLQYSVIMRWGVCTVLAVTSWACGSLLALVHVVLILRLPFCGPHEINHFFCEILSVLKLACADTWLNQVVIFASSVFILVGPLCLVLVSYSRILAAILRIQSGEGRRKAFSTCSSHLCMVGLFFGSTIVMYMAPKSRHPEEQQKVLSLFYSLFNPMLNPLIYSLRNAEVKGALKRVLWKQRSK
Method: as §1, with “2000. The recombinant cell population, used in these experiments, was selected by adding 10 μg/ml of puromycin into the culture medium and subsequently subcloned (WO 2014/191047 A1).” for “2000.”
as §2, §3, §4
In 1998, Krautwurst and collaborators have provided a model system for the study of ligand specificity and structure-function relationships for olfactory receptors (Krautwurst et al., 1998 Cell 95, 917-26). […] Based on their publication, a chimeric OR5A2_variant 1 olfactory receptor was created containing the TM2-TM7 amino acid sequence of OR5A2_variant 1 flanked by the N-teminal and C-terminal sequence of the olfactory receptor OR2A5 (cf. SEQ ID NO: 12). This chimeric OR5A2_variant 1 receptor shared 86 percent identity with the native OR5A2_variant 1 receptor (FIG. 6A and SEQ ID NO: 10).
To test if the amino acids substitution could impact the musk sensitivity, and specificity and to validate the Krautwurst's model, luciferase assays were performed as described previously after transfection of the chimeric OR5A2_variant 1. Cells were treated with semi-logarithmic serial dilutions of musk compounds from the four structurally different groups described earlier.

OR11A1 = biological target: T3, OR11A1 (Homo sapiens, UniProt Q9GZK7); assay: Luciferase reporter concentration-response analysis on OR11A1
T3 construct: expressed in transfected cells; host or cells: HEK293T-RTP1A1/RTP2
T3 sequence (Q9GZK7 1-315): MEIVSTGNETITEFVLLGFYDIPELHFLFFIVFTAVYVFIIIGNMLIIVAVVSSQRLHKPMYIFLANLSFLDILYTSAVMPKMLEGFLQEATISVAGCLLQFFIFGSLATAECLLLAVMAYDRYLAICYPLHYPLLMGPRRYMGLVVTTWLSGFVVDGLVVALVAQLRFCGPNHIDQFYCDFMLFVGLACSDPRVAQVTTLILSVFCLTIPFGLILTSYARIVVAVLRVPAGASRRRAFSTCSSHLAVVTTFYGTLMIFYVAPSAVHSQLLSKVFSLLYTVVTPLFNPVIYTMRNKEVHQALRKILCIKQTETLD

| SMILES | activation of OR5A2_variant 2 (P172L), concentration-response (OR5A2_variant 2) | activation of OR2A5, concentration-response (OR2A5) | EC50 (OR11A1) [nM] |
| --- | --- | --- | --- |
| Cc1c([N+](=O)[O-])c(C)c([N+](=O)[O-])c(C(C)(C)C)c1[N+](=O)[O-] [Musk Xylene, 1-tert-butyl-3,5-dimethyl-2,4,6-trinitrobenzene] | not activated | but not the OR2A5 | 1860 |
| O=C1CCC/C=C\CCCCCCCCCC1 [Velvione] | not activated | but not the OR2A5 |  |
| CC(=O)c1c(C)c([N+](=O)[O-])c(C(C)(C)C)c([N+](=O)[O-])c1C [Musk Ketone, 4-tert-butyl-2,6-dimethyl-3,5-dinitroacetophenone] | not activated | but not the OR2A5 |  |
